Experimental findings from US11452717B2, “Small molecule activators of nicotinamide phosphoribosyltransferase (NAMPT) and uses thereof” (Sanford Burnham Prebys Medical Discovery Institute, priority 2017, dated 2022) are described below.

The experiment concerns the target NAMPT enzyme (Homo sapiens (Human), UniProt P43490). In words: Enzyme Assay and NMN Detection (NAMPT reaction, fluorescence detection of NMN). In kind it is biochemical. To be noted: NAMPT activation, NMN formation. Put shortly:
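NMN formed was read at ex380/em460 after acetophenone/KOH derivatization and formic acid addition, using a same-day calibration curve. Final conditions: NAMPT 16 nM, nicotinamide 5 uM, PRPP 6.25 uM, ATP 120 uM, pyrophosphatase 0.04 U/ml, pH 7.5 HEPES buffer with MgCl2 and TCEP, 2 h at room temperature.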

Several values for one entry are separate records, joined by “and”; a condition that tells them apart may be missing. Equal values may be shown once.

Chain of NAMPT enzyme (P43490 whole entry, species assumed): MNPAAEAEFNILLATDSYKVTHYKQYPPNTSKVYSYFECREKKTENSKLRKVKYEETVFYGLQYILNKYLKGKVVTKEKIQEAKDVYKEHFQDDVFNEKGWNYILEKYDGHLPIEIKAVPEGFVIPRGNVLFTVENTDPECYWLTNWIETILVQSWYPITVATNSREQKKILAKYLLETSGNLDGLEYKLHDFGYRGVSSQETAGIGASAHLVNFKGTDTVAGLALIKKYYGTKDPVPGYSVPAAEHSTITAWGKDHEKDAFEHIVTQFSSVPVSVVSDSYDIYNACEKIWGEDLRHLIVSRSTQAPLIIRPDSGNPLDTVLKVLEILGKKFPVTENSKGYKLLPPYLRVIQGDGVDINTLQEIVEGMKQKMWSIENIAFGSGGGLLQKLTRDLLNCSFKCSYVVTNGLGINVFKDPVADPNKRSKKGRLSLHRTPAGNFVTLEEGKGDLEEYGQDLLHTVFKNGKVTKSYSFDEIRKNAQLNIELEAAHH

As usually defined, the EC50 is the concentration at which the effect is half-maximal. Read a high EC50 as weaker potency. For `Cn1nc(-c2ccc(NC(=O)NCc3ccncc3)cc2)c2cnccc21` [1-[4-(1-Methyl-1H-pyrazolo[4,3-c]pyridin-3-yl)-phenyl]-3-pyridin-4-ylmethyl-urea], the EC50 (Table B-6) lay in the range of 5000 to 20000 nM.

Turning to `CN1CCC(S(=O)(=O)c2ccc(NC(=O)NCc3cn[nH]c3)cc2)CC1` [1-[4-(1-Methyl-piperidine-4-sulfonyl)-phenyl]-3-(1H-pyrazol-4-ylmethyl)-urea], the EC50 (Table B-4) lay in the range of 2000 to 5000 nM.

For `CN1CCC(S(=O)(=O)c2ccc(NC(=O)NCc3cnco3)cc2)CC1` [1-[4-(1-Methyl-piperidine-4-sulfonyl)-phenyl]-3-oxazol-5-ylmethyl-urea], the half-maximal effective concentration (EC50) (Table B-5) was 2000 to 5000 nM.

The compound `CN1CCC(S(=O)(=O)c2ccc(NC(=O)NCc3ccncc3)cc2)CC1` [1-[4-(1-Methyl-piperidine-4-sulfonyl)-phenyl]-3-pyridin-4-ylmethyl-urea] showed an EC50 (Table B-6) of 2000 to 5000 nM.

Regarding `O=C(NCc1cn[nH]c1)Nc1ccc(-c2cccc3[nH]cnc23)cc1` [1-[4-(1H-Benzoimidazol-4-yl)-phenyl]-3-(1H-pyrazol-4-ylmethyl)-urea], the EC50 (Table B-4) is > 20000 nM.

With `O=C(NCc1cnco1)Nc1ccc(-c2cccc3[nH]cnc23)cc1` [1-[4-(1H-Benzoimidazol-4-yl)-phenyl]-3-oxazol-5-ylmethyl-urea], the EC50 (Table B-5) is > 20000 nM.

For the compound `O=C(NCc1ccncc1)Nc1ccc(-c2cccc3[nH]cnc23)cc1` [1-[4-(1H-Benzoimidazol-4-yl)-phenyl]-3-pyridin-4-ylmethyl-urea], for the setting “Table B-6”, the EC50 is > 20000 nM.

Compound `O=C(NCc1cn[nH]c1)Nc1ccc(-c2n[nH]c3ccccc23)cc1` [1-[4-(1H-Indazol-3-yl)-phenyl]-3-(1H-pyrazol-4-ylmethyl)-urea] came in with an EC50 (Table B-4) of 100 to 2000 nM.

Compound `O=C(NCc1cnco1)Nc1ccc(-c2n[nH]c3ccccc23)cc1` [1-[4-(1H-Indazol-3-yl)-phenyl]-3-oxazol-5-ylmethyl-urea] returned an EC50 (Table B-5) of 100 to 2000 nM.

Turning to `O=C(NCc1ccncc1)Nc1ccc(-c2n[nH]c3ccccc23)cc1` [1-[4-(1H-Indazol-3-yl)-phenyl]-3-pyridin-4-ylmethyl-urea], the half-maximal effective concentration (EC50) (Table B-6) was in the range of 100 to 2000 nM.

`O=C(NCc1cn[nH]c1)Nc1ccc(S(=O)(=O)c2ccc(Cl)cc2Cl)cc1` [1-[4-(2,4-Dichloro-benzenesulfonyl)-phenyl]-3-(1H-pyrazol-4-ylmethyl)-urea] gave an EC50 (Table B-4) of 100 to 2000 nM.

On to `O=C(NCc1ccncc1)Nc1ccc(S(=O)(=O)c2ccc(Cl)cc2Cl)cc1` [1-[4-(2,4-Dichloro-benzenesulfonyl)-phenyl]-3-pyridin-4-ylmethyl-urea], for which the EC50 (Table B-6) lay in the range of 100 to 2000 nM.

In the case of `O=C(NCc1cn[nH]c1)Nc1ccc(S(=O)(=O)c2ccc(F)cc2F)cc1` [1-[4-(2,4-Difluoro-benzenesulfonyl)-phenyl]-3-(1H-pyrazol-4-ylmethyl)-urea], where the note is “Table B-4”, the EC50 was < 100 nM.

`O=C(NCc1cnco1)Nc1ccc(S(=O)(=O)c2ccc(F)cc2F)cc1` [1-[4-(2,4-Difluoro-benzenesulfonyl)-phenyl]-3-oxazol-5-ylmethyl-urea] showed an EC50 (Table B-5) of 100 to 2000 nM.

Consider `O=C(NCc1ccncc1)Nc1ccc(S(=O)(=O)c2ccc(F)cc2F)cc1` [1-[4-(2,4-Difluoro-benzenesulfonyl)-phenyl]-3-pyridin-4-ylmethyl-urea], for which the EC50 (Table B-6) lay in the range of 100 to 2000 nM.

In the case of `O=C(NCc1cn[nH]c1)Nc1ccc(S(=O)(=O)c2ccccc2Cl)cc1` [1-[4-(2-Chloro-benzenesulfonyl)-phenyl]-3-(1H-pyrazol-4-ylmethyl)-urea], the half-maximal effective concentration (EC50) (Table B-1) is < 100 nM.

`O=C(NCc1cnco1)Nc1ccc(S(=O)(=O)c2ccccc2Cl)cc1` [1-[4-(2-Chloro-benzenesulfonyl)-phenyl]-3-oxazol-5-ylmethyl-urea]: under “Table B-5”, the concentration for a half-maximal effect (EC50) lay in the range of 100 to 2000 nM.

For the compound `COc1ccccc1S(=O)(=O)c1ccc(NC(=O)NCc2cn[nH]c2)cc1` [1-[4-(2-Methoxy-benzenesulfonyl)-phenyl]-3-(1H-pyrazol-4-ylmethyl)-urea], the EC50 (Table B-1) is < 100 nM.

Regarding `COc1ccccc1S(=O)(=O)c1ccc(NC(=O)NCc2ccncc2)cc1` [1-[4-(2-Methoxy-benzenesulfonyl)-phenyl]-3-pyridin-4-ylmethyl-urea], under “Table B-2”, the EC50 is < 100 nM.

In turn, `O=C(NCc1ccncc1)Nc1ccc(S(=O)(=O)c2ccccc2-c2cccnc2)cc1` [1-[4-(2-Pyridin-3-yl-benzenesulfonyl)-phenyl]-3-pyridin-4-ylmethyl-urea] yielded a concentration for a half-maximal effect (EC50) (Table B-6) of 100 to 2000 nM.

For `O=C(NCc1ccncc1)Nc1ccc(S(=O)(=O)c2ccccc2-c2ccncc2)cc1` [1-[4-(2-Pyridin-4-yl-benzenesulfonyl)-phenyl]-3-pyridin-4-ylmethyl-urea], under “Table B-6”, the EC50 was in the range of 100 to 2000 nM.

As to `O=C(NCc1cn[nH]c1)Nc1ccc(S(=O)(=O)c2ccccc2-c2ccccc2F)cc1` [1-[4-(2′-Fluoro-biphenyl-2-sulfonyl)-phenyl]-3-(1H-pyrazol-4-ylmethyl)-urea], the EC50 (Table B-4) was < 100 nM.

Turning to `O=C(NCc1ccncc1)Nc1ccc(S(=O)(=O)c2ccccc2-c2ccccc2F)cc1` [1-[4-(2′-Fluoro-biphenyl-2-sulfonyl)-phenyl]-3-pyridin-4-ylmethyl-urea], where the note is “Table B-6”, the EC50 was < 100 nM.

Where the note is “Table B-4”, `COc1ccccc1-c1ccccc1S(=O)(=O)c1ccc(NC(=O)NCc2cn[nH]c2)cc1` [1-[4-(2′-Methoxy-biphenyl-2-sulfonyl)-phenyl]-3-(1H-pyrazol-4-ylmethyl)-urea] yielded an EC50 of 5000 to 20000 nM.

For the setting “Table B-6”, `COc1ccccc1-c1ccccc1S(=O)(=O)c1ccc(NC(=O)NCc2ccncc2)cc1` [1-[4-(2′-Methoxy-biphenyl-2-sulfonyl)-phenyl]-3-pyridin-4-ylmethyl-urea] came in with an EC50 of 5000 to 20000 nM.

For the compound `O=C(NCc1cn[nH]c1)Nc1ccc(S(=O)(=O)c2ccc(Cl)c(Cl)c2)cc1` [1-[4-(3,4-Dichloro-benzenesulfonyl)-phenyl]-3-(1H-pyrazol-4-ylmethyl)-urea], the EC50 (Table B-4) fell in the range of 5000 to 20000 nM.

Regarding `O=C(NCc1cnco1)Nc1ccc(S(=O)(=O)c2ccc(Cl)c(Cl)c2)cc1` [1-[4-(3,4-Dichloro-benzenesulfonyl)-phenyl]-3-oxazol-5-ylmethyl-urea], the concentration giving a half-maximal response (EC50) (Table B-5) was 100 to 2000 nM and 2000 to 5000 nM.

The compound `O=C(NCc1ccncc1)Nc1ccc(S(=O)(=O)c2ccc(Cl)c(Cl)c2)cc1` [1-[4-(3,4-Dichloro-benzenesulfonyl)-phenyl]-3-pyridin-4-ylmethyl-urea] came in with an EC50 (Table B-6) of 100 to 2000 nM.

Take `O=C(NCc1cn[nH]c1)Nc1ccc(S(=O)(=O)c2ccc(F)c(F)c2)cc1` [1-[4-(3,4-Difluoro-benzenesulfonyl)-phenyl]-3-(1H-pyrazol-4-ylmethyl)-urea]: for the setting “Table B-4”, the EC50 is 100 to 2000 nM.

As to `O=C(NCc1cnco1)Nc1ccc(S(=O)(=O)c2ccc(F)c(F)c2)cc1` [1-[4-(3,4-Difluoro-benzenesulfonyl)-phenyl]-3-oxazol-5-ylmethyl-urea], the EC50 (Table B-5) lay within 100 to 2000 nM.

In the case of `O=C(NCc1ccncc1)Nc1ccc(S(=O)(=O)c2ccc(F)c(F)c2)cc1` [1-[4-(3,4-Difluoro-benzenesulfonyl)-phenyl]-3-pyridin-4-ylmethyl-urea], the half-maximal effective concentration (EC50) (Table B-6) was < 100 nM.

Consider `O=C(NCc1cn[nH]c1)Nc1ccc(S(=O)(=O)N2CCc3ccccc3C2)cc1` [1-[4-(3,4-Dihydro-1H-isoquinoline-2-sulfonyl)-phenyl]-3-(1H-pyrazol-4-ylmethyl)-urea], for which the EC50 (Table B-1) is < 100 nM.

On to `Cc1noc(C)c1CNC(=O)Nc1ccc(S(=O)(=O)N2CCc3ccccc3C2)cc1` [1-[4-(3,4-Dihydro-1H-isoquinoline-2-sulfonyl)-phenyl]-3-(3,5-dimethyl-isoxazol-4-ylmethyl)-urea], for which the EC50 (Table B-1) was > 20000 nM.

The compound `O=C(NCc1cnco1)Nc1ccc(S(=O)(=O)N2CCc3ccccc3C2)cc1` [1-[4-(3,4-Dihydro-1H-isoquinoline-2-sulfonyl)-phenyl]-3-oxazol-5-ylmethyl-urea] returned an EC50 (Table B-1) of 100 to 2000 nM.

Consider `O=C(NCc1ccncc1)Nc1ccc(S(=O)(=O)N2CCc3ccccc3C2)cc1` [1-[4-(3,4-Dihydro-1H-isoquinoline-2-sulfonyl)-phenyl]-3-pyridin-4-ylmethyl-urea], for which the half-maximal effective concentration (EC50) (Table B-2) fell in the range of 100 to 2000 nM.

The compound `O=C(NCc1cncs1)Nc1ccc(S(=O)(=O)N2CCc3ccccc3C2)cc1` [1-[4-(3,4-Dihydro-1H-isoquinoline-2-sulfonyl)-phenyl]-3-thiazol-5-ylmethyl-urea] gave a concentration for a half-maximal effect (EC50) (Table B-1) of 100 to 2000 nM.

As for `O=C(NCc1cn[nH]c1)Nc1ccc(S(=O)(=O)c2cc(F)cc(F)c2)cc1` [1-[4-(3,5-Difluoro-benzenesulfonyl)-phenyl]-3-(1H-pyrazol-4-ylmethyl)-urea], the half-maximal effective concentration (EC50) (Table B-4) was < 100 nM.

As to `O=C(NCc1cnco1)Nc1ccc(S(=O)(=O)c2cc(F)cc(F)c2)cc1` [1-[4-(3,5-Difluoro-benzenesulfonyl)-phenyl]-3-oxazol-5-ylmethyl-urea], the EC50 (Table B-5) fell in the range of 100 to 2000 nM.

As for `O=C(NCc1ccncc1)Nc1ccc(S(=O)(=O)c2cc(F)cc(F)c2)cc1` [1-[4-(3,5-Difluoro-benzenesulfonyl)-phenyl]-3-pyridin-4-ylmethyl-urea], for the setting “Table B-6”, the EC50 lay within 100 to 2000 nM.

On to `O=C(NCc1cn[nH]c1)Nc1ccc(S(=O)(=O)c2cccc(Cl)c2)cc1` [1-[4-(3-Chloro-benzenesulfonyl)-phenyl]-3-(1H-pyrazol-4-ylmethyl)-urea], for which the half-maximal effective concentration (EC50) (Table B-1) is < 100 nM.

Consider `O=C(NCc1cn[nH]c1)Nc1ccc(S(=O)(=O)c2cccc(I)c2)cc1` [1-[4-(3-Iodo-benzenesulfonyl)-phenyl]-3-(1H-pyrazol-4-ylmethyl)-urea], for which the EC50 (Table B-4) was < 100 nM.

Turning to `O=C(NCc1ccncc1)Nc1ccc(S(=O)(=O)c2cccc(I)c2)cc1` [1-[4-(3-Iodo-benzenesulfonyl)-phenyl]-3-pyridin-4-ylmethyl-urea], the EC50 (Table B-6) was < 100 nM.

Turning to `COc1cccc(S(=O)(=O)c2ccc(NC(=O)NCc3cn[nH]c3)cc2)c1` [1-[4-(3-Methoxy-benzenesulfonyl)-phenyl]-3-(1H-pyrazol-4-ylmethyl)-urea], under “Table B-1”, the EC50 was < 100 nM.

Consider `COc1cccc(S(=O)(=O)c2ccc(NC(=O)NCc3ccncc3)cc2)c1` [1-[4-(3-Methoxy-benzenesulfonyl)-phenyl]-3-pyridin-4-ylmethyl-urea], for which the EC50 (Table B-2) was < 100 nM.
